Assay [1] deals with T1, S. aureus sortase A (Staphylococcus aureus, UniProt Q2FV99).
T1 construct: purchased AnaSpec AS-72229
Put plainly: SrtA enzyme inhibition FRET assay, DABCYL-LPETG-EDANS substrate. Type of assay: biochemical. As for the experimental part: (§1) The enzymatic reactions were carried out in black, low-binding polystyrene 384 well plates (Greiner Bio-One). […] SrtA was pre-incubated in the reaction buffer with compounds for 1 h at room temperature prior to the addition of the FRET substrate. Assays were performed in 50 µL reactions with 50 ng of S. aureus sortase A and 25 µM of DABCYL-LPETG-EDANS substrate or 1 µM of 5-FAM/QXL^TM 520 substrate. The inhibitory activity of the compounds was determined by monitoring the rise in fluorescence intensity over 24 h at Ex/Em = 336 nm/490 nm for the DABCYL/EDANS substrate and Ex/Em = 490 nm/520 nm for the 5-FAM/QXL 520 substrate on a Tecan Infinite M1000 Pro reader.
(§2) Raw fluorescence data were corrected for autofluorescence before computing percentage inhibition values. These percentage inhibition values were plotted against compound concentration using GraphPad Prism version 8.0 by nonlinear regression analysis using least squares fit method for IC50 determination. Testing was performed twice to ensure reproducibility of results.

Assay [2] deals with T1, S. aureus sortase A. The assay is described as follows: SrtA enzyme inhibition FRET assay, 5-FAM/QXL 520 substrate. In kind it is biochemical. How it is done:
as §1, §2

In assay [3] the test system is adherence of S. aureus Newman to fibrinogen. The assay is described as follows: Fibrinogen binding assay. Type of assay: cell-based, Staphylococcus aureus. Particulars: for IC50: read-out: Fibrinogen adherence Inhibition IC50; for concentration giving ≥90% prevention of S. aureus Newman adherence to fibrinogen: compared to untreated wildtype strain. As for the experimental part: Fibrinogen binding assay was completed as described but with slight revision. A flat-bottom 96-well plate was covered with fibrinogen protein by adding 50 µL of 20 µg/mL of fibrinogen protein from bovine plasma diluted in saline and incubated at 4 °C for 24 h. The coated plates were gently rinsed twice with PBS and blocked for 60 min with 4% bovine serum albumin (BSA). The plates were then washed 3 times with PBS. For this assay, S. aureus Newman strain was cultivated in TSB at 37 °C to exponential phase (OD600 = 0.5) and then the bacterial culture was incubated with various concentrations of test compound or control for 2.5 h. Then the cells were pelleted by centrifugation at 10,000× g for 10 min, the supernatants were removed and the cell pellets stored at −20 °C. The following day, cell pellets were suspended in PBS and dispersed in 100 μL aliquots to distinct wells of fibrinogen-coated 96-well plates. After 2 h of growth at 37 °C, the bacterial supernatant was discarded and the wells were rinsed gently with 150 µl PBS. Then the bacterial cells were fixed with 2% (v/v) glutaraldehyde and incubated for 30 min at 25 °C. After a wash with PBS, bound cells were stained with 0.1% crystal violet dye for 15 min. Plates were rinsed twice again with PBS, enclosed with aluminum foil, then stored at room temperature to dry overnight. On the next day absorbance was measured at 570 nm. The results were described as the percent of adhesion inhibition normalized to the wild type control. Two independent experiments were performed in triplicate to ensure reproducibility.

The test system of assay [4] is S. aureus Newman biofilm formation. Put plainly: Biofilm inhibitory assay (crystal violet), biofilm formation. In kind it is cell-based, Staphylococcus aureus. The following applies: CV assay; for IC50: biofilm formation, read-out: Biofilm Inhibition IC50. As for the experimental part: (§3) The effectiveness of SrtA inhibitors in reducing biofilm formation and growth was assessed using the crystal violet (CV) biofilm assay with the following modifications. TSB with 2% glucose (TSB without glucose for E. coli) was inoculated with 10^5 CFU/mL of S. aureus and E. coli overnight cultures. A total of 90µl of this cell suspension was then dispensed into 96-well microtiter plates containing 10 µL of different concentrations of the SrtA inhibitors. After 24 h growth at 37 °C the plates were washed with PBS to remove unbound cells and heat fixed at 60 °C for 30 min. Next, the wells were stained with 0.1% crystal violet solution for 15 min at room temperature. At the completion of the incubation plates were washed 3 times with PBS and dried. Then the crystal violet dye from the biofilm was solubilized with 200 µL of DMSO. A total of 100 µL of this solution was then moved to a new microtiter plate for absorbance measurement at 595 nm. For pre-formed biofilm assay, the plates were prepared and incubated as mentioned earlier, without SrtA inhibitors. After 24 h incubation, the culture supernatant was removed gently and biofilm carefully washed with sterile PBS. Next, 10 µL of different concentrations of SrtA inhibitors with 90 µL of TSB with 2% glucose were added carefully into the wells and incubated at 37 °C for 24 h. The amount of crystal violet staining of biofilm was measured as described above. The results were reported as percent inhibition normalized to the wild type control. Two independent experiments were performed in triplicate to ensure reproducibility.

In assay [5] the test system is S. aureus ATCC 33591 (MRSA) biofilm formation. The assay is described as above. Particulars: S. aureus ATCC 33591 (MRSA), biofilm formation, read-out: Biofilm Inhibition IC50. Type of assay: cell-based, Staphylococcus aureus. As for the experimental part:
as §3

Assay [6] concerns S. aureus Newman. Put plainly: S. aureus whole cell assay (MIC, microbroth dilution). Type of assay: cell-based, Staphylococcus aureus. Particulars: for MIC: Staphylococcus aureus, NEWMAN, 24 h; for growth inhibition of S. aureus: at 200 µM, strain not given. How it is done: (§4) Minimum inhibitory concentration (MIC) tests were performed according to procedures of the Clinical Laboratory Standards Institute (CLSI) with minor changes using the microbroth dilution technique in a 384-well setup. Inoculum of each S. aureus strain was prepared by suspending segregated colonies in sterile saline to a 0.5 McFarland standard. An inoculum of 2–8 × 10^5 CFU/mL was incubated with the compounds for 24 h at 37 °C. Gentamicin (data not shown) was incubated in the same manner as the test compounds and served as a positive control. The effect of the compounds on bacterial growth was calculated by quantifying the optical density at 600 nm on a microplate reader (Tecan, Infinite M1000, Salzburg, Austria). Dilutions of the inoculum were cultivated on agar to verify the validity of the inoculum seeding density and absence of contamination. All tests were executed in triplicate during two separate experiments.

The test system of assay [7] is S. aureus ATCC 33591 (MRSA). Described as above. The following applies: 24 h. In kind it is cell-based, Staphylococcus aureus. As for the experimental part: as §4
Assay [8] has as its system S. aureus ATCC 25923. The description is as above. Type of assay: cell-based, Staphylococcus aureus. Particulars: Staphylococcus aureus, ATCC25923, 24 h. As for the experimental part: as §4
In assay [9] the test system is A549 cells. Put plainly: Mammalian cell cytotoxicity assay (PrestoBlue). Type of assay: cell-based, human. The following applies: Homo sapiens, A549, 72 h, read-out: Mammalian cell lines IC50. How it is done:
(§5) A549 and HepG2 cells were seeded at 1500 and 2500 cells per well, respectively, in 384-well microplates and incubated at 37 °C in the presence of 5% CO2. The next day, cells were treated with compounds then incubated for an additional 72 h. To assess the cytotoxic effect of the compounds PrestoBlue cell viability reagent (Life Technologies, Carlsbad, CA, USA) was used. After the 72 h incubation with compounds, the 384-well assay plates were incubated with this viability indicator dye for 2 h (A549) and 4 h (HepG2) before fluorescence reading at Ex/Em = 560 nm/590 nm on the Tecan Infinite M1000 Pro reader. Puromycin (data not shown) was used as the positive control against both cell lines. All tests were executed in triplicate on two separate experiments.

Assay [10] concerns HepG2 cells. The assay is described as follows: Mammalian cell cytotoxicity assay (PrestoBlue). Type of assay: cell-based, human. Particulars: Homo sapiens, HepG2, 72 h, read-out: Mammalian cell lines IC50. As for the experimental part:
as §5

Assay [11] deals with S. aureus Newman pre-formed biofilms. The assay is described as follows: Biofilm inhibitory assay (crystal violet), pre-formed biofilms. Type of assay: cell-based, Staphylococcus aureus. The following applies: pre-formed biofilms, CV assay, read-out: Biofilm Inhibition IC50. How it is done: as §3
Where [12] appears, read: Sortase A IC50, DABCYL-LPETG-EDANS substrate, 4 h.
[13] abbreviates: Sortase A IC50, 5-FAM/QXL substrate, 10 min.

Values joined by “and” are separate entries in the source; they are usually repeats but may differ in a detail not shown here. Equal values may be shown once. Where a name gives a salt, the structure may show the parent alone. Read-outs that look alike come from different tables or passages of the source. Bounds are passed on as bounds.

T1 sequence (Q2FV99 whole entry): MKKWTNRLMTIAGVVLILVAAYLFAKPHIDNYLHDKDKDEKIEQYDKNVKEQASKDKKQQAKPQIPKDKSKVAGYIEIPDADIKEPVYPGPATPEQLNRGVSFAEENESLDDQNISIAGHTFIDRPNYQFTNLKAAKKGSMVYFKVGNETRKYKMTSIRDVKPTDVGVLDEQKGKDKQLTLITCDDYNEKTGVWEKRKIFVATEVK

`CC(C)(O)[C@H]1O[C@H]2CC[C@@]3(C)[C@@](O)(CC[C@H]4Cc5c([nH]c6ccccc56)[C@@]43C)C2=CC1=O` [Compound N563, Paxilline]: the IC50 in assay [1] and in assay [2] was more than 200 µM in each case.

Consider `COc1c(C)c2c(c(O)c1C/C=C(\C)CCC(=O)OC1c3cc(O)cc(O)c3C(=O)OC1(C)O)C(=O)OC2` (stereo not drawn) [Compound N1871, Antibiotic F 13459], for which the IC50 in assay [1] and in assay [2] was more than 200 µM throughout.

In the case of `COc1cc(/C=C/C(=O)CC(=O)/C=C/c2ccc(O)c(OC)c2)ccc1O` [Curcumin, reference compound], the IC50 is 46.5 ± 6.2 µM in [3] (Staphylococcus aureus, NEWMAN); 51.2 ± 4.4 µM in [4] (Staphylococcus aureus, NEWMAN); 51 µM in [4]; more than 150 µM in assay [5] (Staphylococcus aureus); 48.2 ± 12.7 µM in [9]; 39.6 ± 5.3 µM in [10]. In addition, the “concentration giving ≥90% prevention of S. aureus Newman adherence to fibrinogen” value in assay [3] is more than 170 µM. In addition, the “concentration giving >90% inhibition of biofilm formation” value in assay [4] amounted to 174 µM. In addition, the MIC in [6], in assay [7] (Staphylococcus aureus) and in assay [8] was more than 200 µM throughout. The “growth inhibition of S. aureus” value in [6] is listed as “did not inhibit the growth”.

For `COc1ccc(CC(N)C(=O)NC2C(C(=O)O)OC(n3cnc4c(N)ncnc43)C2O)cc1` (stereo not drawn) [Compound N2238, Chryscandin], the IC50 in assay [1] and in assay [2] was more than 200 µM each time.

Consider `CC(/C=C/[C@@]1(C)[C@H](C)CCC(=O)[C@@H]1C)=C\Cc1c(O)c(Cl)c(C)c(C=O)c1O` [Compound N1321, Ascochlorin], for which the IC50 in [1] (setting [12]) and in assay [2] (setting [13]) was more than 200 µM each time.

On to `CC(C)=CCc1c(O)c(CC=C(C)C)c2occ(-c3ccc(O)cc3)c(=O)c2c1O` [Compound N942, 6,8-diprenylgenistein], for which the half-maximal inhibitory concentration (IC50) in assay [1] and in assay [2] was more than 200 µM throughout.

Regarding `O=C(/C=C/c1ccc(O)c(O)c1)O[C@@H]1C[C@](O)(C(=O)O)C[C@@H](O)[C@H]1O` [Chlorogenic acid, reference compound], the IC50 in assay [1] (setting [12]) is 88 ± 5.6 µM; in assay [2] (setting [13]), 144 ± 16 µM; in assay [2] (Sortase A IC50, 5-FAM/QXL substrate, after 24 h), 103 ± 31 µM; in [9], more than 200 µM; in [10], more than 200 µM. Further, the MIC in assay [6] and in [8] was more than 200 µM each time. For the same compound, the “growth inhibition of S. aureus” value in [6] is “did not inhibit the growth”.

`CC(C)=CCc1c2c(c(O)c3c(=O)c(-c4ccc(O)c(O)c4)coc13)C=CC(C)(C)O2` [Compound N1048, Auriculasin]: the IC50 in assay [1] and in assay [2] was more than 200 µM in each case.

In the case of `COc1ccc(C[C@H](N)C(=O)N[C@H]2[C@@H](O)[C@H](n3cnc4c(N(C)C)ncnc43)O[C@@H]2CO)cc1` [Compound N51, Puromycin hydrochloride], the IC50 in assay [1] and in [2] was more than 200 µM throughout.

With `CC1=CC2c3c(cc4oc5cc(C)cc(O)c5c4c3C)OC3(O)C(=O)c4oc5cc(C)cc(O)c5c4C(C)(C1)C23` (stereo not drawn) [Compound N2450, Asticolorin B], the IC50 in assay [1] (read-out: Sortase A IC50, DABCYL-LPETG-EDANS substrate, 4 h) was more than 200 µM; in assay [2] (read-out: Sortase A IC50, 5-FAM/QXL substrate, 10 min), more than 200 µM.

For `O=C(O)c1cc[c]([Hg][OH])cc1` [p-HMB, p-hydroxymercuribenzoic acid, reference compound], the IC50 in assay [3] (S. aureus Newman) is 37.4 ± 5.3 µM; in [11], 43 ± 3.6 µM; in assay [4], 11.9 µM and 12 µM; in assay [5], more than 150 µM; in assay [1] (DABCYL-LPETG-EDANS substrate, 4 h, read-out: Sortase A IC50), 0.2 ± 0.07 µM; in assay [2] (5-FAM/QXL substrate, 10 min, read-out: Sortase A IC50) it was 0.18 ± 0.08 µM. Further, in assay [3], the “concentration giving ≥90% prevention of S. aureus Newman adherence to fibrinogen” value was more than 170 µM. The “concentration giving >90% inhibition of biofilm formation” value in [4] is recorded as 22 µM. The “S. aureus MIC” value in [7] came to 6.7 ± 1.5 µM.

The values above are taken from paper PMC7696255, “In-Silico Identified New Natural Sortase A Inhibitors Disrupt S. aureus Biofilm Formation” (International Journal of Molecular Sciences, 2020).
